Experimental data as given in patent publication US11339153B2, “Compounds useful in modulating the farnesoid X receptor and methods of making and using the same” (Inorbit Therapeutics AB, priority 2018, dated 2022).

What was measured:
[1] = biological target: T1, Human FXR receptor (NR1H4) (Homo sapiens, UniProt Q96RI1); test: Human Farnesoid X Receptor (NR1H4, FXR) Reporter Assay (Indigo Bioscience kit, luciferase); type: cell-based; details: for EC50: Human FXR (NR1H4) reporter assay, 22-24 h incubation; for Efficacy (%): normalized to GW4064 set as 100%
T1 sequence (Q96RI1 1-486): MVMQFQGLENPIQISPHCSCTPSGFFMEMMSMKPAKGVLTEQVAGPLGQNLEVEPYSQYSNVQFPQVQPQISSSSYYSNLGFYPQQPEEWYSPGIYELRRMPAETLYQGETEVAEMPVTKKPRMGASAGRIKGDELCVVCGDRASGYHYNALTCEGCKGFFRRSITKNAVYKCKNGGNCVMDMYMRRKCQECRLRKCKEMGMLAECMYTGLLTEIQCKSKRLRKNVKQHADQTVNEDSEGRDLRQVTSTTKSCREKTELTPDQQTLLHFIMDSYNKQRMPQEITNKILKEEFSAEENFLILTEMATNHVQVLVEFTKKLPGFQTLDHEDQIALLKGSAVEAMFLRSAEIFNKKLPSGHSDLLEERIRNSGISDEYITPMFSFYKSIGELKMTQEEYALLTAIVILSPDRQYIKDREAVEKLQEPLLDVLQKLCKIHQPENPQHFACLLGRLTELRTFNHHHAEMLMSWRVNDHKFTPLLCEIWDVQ
Excerpt: Human Farnesoid X Receptor (NR1H4, FXR) Reporter Assay
Determination of a ligand mediated Ga14 promoter driven transactivation to quantify ligand binding mediated activation of FXR. A FXR Reporter Assay kit was purchased from Indigo Bioscience (#IB00601-32) to determine the potency and efficacy of compounds that can induce FXR activation. The nuclear receptor assay system utilizes non-human mammalian cells engineered to provide constitutive high level expression of Human FXR receptor (NR1H4), a ligand-dependent transcription factor. The reporter cells include luciferase reporter gene functionality linked to an FXR-response promoter. Quantifying changes in luciferase expression in the treated reporter cells provides a sensitive surrogate measure of the changes in FXR activity.
The reporter cells incorporate the cDNA encoding beetle luciferase, a protein that catalyses the mono-oxidation of D-luciferin in a Mg^2+ dependent reaction that consumes O2 and ATP as co-substrates, yielding the products Oxylucifern, AMP, PPi, CO2 and photon (light) emission. Luminescence intensity of the reaction is quantified using a luminometer, and is reported in terms of Relative Light Units (RLU's).
The assay was performed according to the manufacturer's instructions. In brief, the test compounds were weighed and dissolved in phosphate buffer solution as a 10 mM stock and diluted to the appropriate concentration using Compound Screening Medium (CSM). The frozen reporter cells were thawed and suspended in Cell Recovery Medium at 37° C. The compounds were then immediately added to the cell plate and the plate was placed into a 37° C., humidified CO2 incubator for 22-24 h. After incubation, the media was carefully removed, Luciferase detection solution was added and the plate read in a Luminometer. The data was calculated as per kit instructions, with increases in luminescence being directly proportional to increases in compound agonist activity.

[2] = Metabolism in human microsomes; type: in vitro ADME; details: 37° C.; for % remaining @ 45 mins of incubation with UDPGA: co-factor UDPGA only; for % remaining @ 45 mins of incubation with UDPGA and NADPH: co-factors UDPGA and NADPH
Description: Metabolism in Human Microsomes
Microsomal mixes (247.5 μL) of human microsomes (1250 μL, 4 mg/ml), potassium phosphate buffer (1250 μL), alamethecin (12.5 μL, 5 mg/ml) and cofactors Nicotinamide Adenine Dinucleotide Phosphate NADPH (1250 μL, 4 mM)/uridine 5′-diphospho-glucuronic acid UDPGA (1250 μL, 4 mM) or UDPGA only were loaded onto a shaker for 10 minutes. The test compound (2.5 μL, 100 μM) was then separately added to both microsomal mixes (i.e., one mix with NADPH and one mix without NADPH), incubated at 37° C. and sampled at predetermined time points. Analysis was performed using a AB SCIEX QTRAP 4500 LC-MS/MS, a Kinetex C18, 50*4.6 mm, 5 μm column and eluting with 10 mM Ammonium Acetate/Methanol.
Table 2 summarizes the % of compound remaining after 45 minutes of incubation with human microsomes either in the presence of co-factors UDPGA and NADPH or UDPGA only.

[3] = Metabolic identification in hepatocytes (human); type: in vitro ADME
Description: (§1) Metabolic Identification in Hepatocytes.
(§2) A 10 mM stock of test compound from Example 4 (sodium 2-(3-((5-cyclopropyl-3-(2-(trifluoromethoxy)phenyl)isoxazol-4-yl)methoxy)-8-azabicyclo[3.2.1]octan-8-yl)-4-fluorobenzo[d]thiazole-6-sulfinate) was prepared in DMSO. 20 μM of final working stock was then prepared by diluting 4 μL of 10 mM stock in 1996 μL of Krebs-Hensleit buffer. 200 μL of hepatocyte cell suspension (2×10^6 cells/mL) was added to TPP 48 well plate and preincubated for 30 min@37° C. in incubator. 200 μL of 20 μM working stock of test compound was added to the cell suspension and incubated in an incubator on vibramax at a shaking speed of 500 rpm. For the 0 min sample, 25 μL of hepatocyte suspension was precipitated with 200 μL of acetonitrile and 25 μL of 20 μM test compound was added. The reaction was stopped at 15, 30, 60, 90, 120 min by precipitating 50 μL of incubation mixture with 200 μL of acetonitrile. The samples were vortexed for 5 min at 1200 rpm and centrifuged at 4000 rpm for 10 min. The supernatant was separated, diluted 2 fold with water and analysed using a HPLC (Shimadzu SIL HTS) and mass spectrometer (5500 Qtrap). Acetonitrile and 0.1% formic acid in Milli-q-water were used as the mobile phase, using a column of either Waters Xbridge C18, 250×3.0 mm, 5.0μ particle size or Phenomnex kinetex 5μ EVO C18 100 A, 50×4.6 mm 5.0μ particle size.
Table 3 summarizes the major metabolites observed when the compound of Example 4 of the invention was incubated in human, dog or mouse hepatocytes.

[4] = Metabolic identification in hepatocytes (dog); type: in vitro ADME
Description: as §1
as §2, with “size. […]” for “size.”

[5] = Metabolic identification in hepatocytes (mouse); type: in vitro ADME
Description: as §1
as §2, with “size. […]” for “size.”

% remaining @ 45 mins of incubation with UDPGA [2] | % remaining @ 45 mins of incubation with UDPGA and NADPH [2] | Compound | EC50 [1] | Efficacy (%) [1] | Acyl-Glucuronide [3] | Observed Major Metabolites [3] | major metabolites formed (MS/MS spectra, FIG. 1) ([3]; incubation for 120 mins) | Acyl-Glucuronide [4] | Observed Major Metabolites [4] | Acyl-Glucuronide [5] | Observed Major Metabolites [5]
92% | 26% | O=S([O-])c1cccc(N2CC(O)(c3ccc(OCc4c(-c5c(Cl)cccc5Cl)noc4C4CC4)cc3Cl)C2)c1.[Na+] [Example 6, Sodium 3-(3-(2-chloro-4-((5-cyclopropyl-3-(2,6-dichlorophenyl)isoxazol-4-yl)methoxy)phenyl)-3-hydroxyazetidin-1-yl)benzenesulfinate] | > 5 µM | 96% | – | – | – | – | – | – | –
95% | 38% | O=S(O)c1ccc(C2CC(O)(c3ccc(OCc4c(-c5c(Cl)cccc5Cl)noc4C4CC4)cc3Cl)C2)cc1 (stereo not drawn) [Example 7, Sodium 4-(3-(2-chloro-4-((5-cyclopropyl-3-(2,6-dichlorophenyl)isoxazol-4-yl)methoxy)phenyl)-3-hydroxycyclobutyl)benzenesulfinic acid] | > 5 µM | 89% | – | – | – | – | – | – | –
– | – | O=S(O)c1ccc(C2CC2c2ccc(OCc3c(-c4c(Cl)cccc4Cl)noc3C3CC3)cc2Cl)cc1 (stereo not drawn) [Example 8, Sodium 4-(2-(2-chloro-4-((5-cyclopropyl-3-(2,6-dichlorophenyl)isoxazol-4-yl)methoxy)phenyl)cyclopropyl)benzenesulfinate] | 0.5 to 5 µM | 127% | – | – | – | – | – | – | –

Compound | % remaining @ 45 mins of incubation with UDPGA [2] | % remaining @ 45 mins of incubation with UDPGA and NADPH [2] | EC50 [1] | Efficacy (%) [1] | Acyl-Glucuronide [3] | Observed Major Metabolites [3] | major metabolites formed (MS/MS spectra, FIG. 1) ([3]; incubation for 120 mins) | Acyl-Glucuronide [4] | Observed Major Metabolites [4] | Acyl-Glucuronide [5] | Observed Major Metabolites [5]
O=S([O-])c1cc(F)c2nc(N3[C@@H]4CC[C@H]3C[C@@H](OCc3c(-c5ccccc5OC(F)(F)F)noc3C3CC3)C4)sc2c1.[Na+] [Example 4, Sodium 2-(3-((5-cyclopropyl-3-(2-(trifluoromethoxy)phenyl)isoxazol-4-yl)methoxy)-8-azabicyclo[3.2.1]octan-8-yl)-4-fluorobenzo[d]thiazole-6-sulfinate] | 94% | 52% | < 0.5 µM | 94% | No | Hydroxy, Alkenyl and Alkenyl-hydroxy | consistent with oxidative metabolism to give the corresponding hydroxy compound | No | Alkenyl-hydroxy | No | Hydroxy, Di-hydroxy and Alkenyl-hydroxy
